Assay results published in patent publication US9353051B2, “Antiviral drugs for treatment or prevention of dengue infection” (Siga Technologies Inc., priority 2007, dated 2016).

System: Dengue-2 (Strain New Guinea C)
Experiment: viral yield assay against Dengue-2 in Vero cells
Assay type: cell-based
Conditions: Dengue virus; Vero cells, MOI 0.1, harvested 48 hours post infection; read-out: Activity (anti-dengue 2 viral activity, EC50)
Protocol: Compounds that were active in the primary screen were also tested for activity in viral yield assays. […] Vero cells in 12-well plates were infected with dengue-2 virus at a multiplicity of infection (MOI) of 0.1, treated with compound (or DMSO as a control), incubated at 37° C., harvested 48 hours post infection and titered on Vero cells as described above. The EC50 was calculated through ExcelFit. Those compounds with activity below 1 μM are indicated with “A”, those with activity between 1 and 10 μM are indicated with “B”, those with activity between 10 and 25 μM with “C”, and those with activity above 25 μM are indicated with “D”.

Row | SMILES | EC50 [µM]
1 | CN(c1ccccc1)S(=O)(=O)c1cccc(NC(=O)Cn2cnc3ccccc3c2=O)c1 [Compound 122, N-[3-(Methyl-phenyl-sulfamoyl)-phenyl]-2-(4-oxo-4H-quinazolin-3-yl)-acetamide] | > 25
2 | Cc1cc(C)nc(NS(=O)(=O)c2ccc(NC(=O)Cn3cnc4ccccc4c3=O)cc2)n1 [Compound 33, N-[4-(4,6-Dimethyl-pyrimidin-2-ylsulfamoyl)-phenyl]-2-(4-oxo-4H-quinazolin-3-yl)-acetamide] | > 25
3 | CCN(CC)S(=O)(=O)c1ccc(NC(=O)Cn2cnc3sccc3c2=O)cc1 [Compound 5, N-(4-Diethylsulfamoyl-phenyl)-2-(4-oxo-4H-thieno[2,3-d]pyrimidin-3-yl)-acetamide] | 1 to 10
4 | CN(Cc1ccccc1)S(=O)(=O)c1ccc(NC(=O)CCn2cnc3ccccc3c2=O)cc1 [Compound 98, N-[4-(Benzyl-methyl-sulfamoyl)-phenyl]-3-(4-oxo-4H-quinazolin-3-yl)-propionamide] | > 25
5 | CCN(CC)S(=O)(=O)c1ccc(NC(=O)Cn2cnc3cc(F)ccc3c2=O)cc1 [Compound 57, N-(4-Diethylsulfamoyl-phenyl)-2-(7-fluoro-4-oxo-4H-quinazolin-3-yl)-acetamide] | > 25
6 | CC(NS(=O)(=O)c1ccc(NC(=O)Cn2nnc3ccccc3c2=O)cc1)C1CC2CCC1C2 (stereo not shown) [Compound 83, N-[4-(1-Bicyclo[2.2.1]hept-2-yl-ethylsulfamoyl)-phenyl]-2-(4-oxo-4H-benzo[d][1,2,3]triazin-3-yl)-acetamide] | > 25
7 | O=C(Cn1cnc2ccccc2c1=O)Nc1cccc(S(=O)(=O)N2CCCC2)c1 [Compound 121, 2-(4-Oxo-4H-quinazolin-3-yl)-N-[3-(pyrrolidine-1-sulfonyl)-phenyl]-acetamide] | > 25
8 | CCN(CC)S(=O)(=O)c1ccc(NC(=O)CSc2nc3ccccc3c(=O)n2C)cc1 [Compound 71, N-(4-Diethylsulfamoyl-phenyl)-2-(3-methyl-4-oxo-3,4-dihydro-quinazolin-2-ylsulfanyl)-acetamide] | > 25
9 | CC(C)NS(=O)(=O)c1ccc(NC(=O)Cn2cnc3ccccc3c2=O)cc1 [Compound 44, N-(4-Isopropyl-sulfamoyl-phenyl)-2-(4-oxo-4H-quinazolin-3-yl)-acetamide] | > 25
10 | NS(=O)(=O)c1ccc(NC(=O)Cn2cnc3ccccc3c2=O)cc1 [Compound 38, 2-(4-Oxo-4H-quinazolin-3-yl)-N-(4-sulfamoyl-phenyl)-acetamide] | > 25
11 | CCN(CC)S(=O)(=O)c1ccc(C)c(NC(=O)Cn2cnc3ccccc3c2=O)c1 [Compound 89, N-(5-Diethylsulfamoyl-2-methyl-phenyl)-2-(4-oxo-4H-quinazolin-3-yl)-acetamide] | > 25
12 | CC1CC(C)CN(S(=O)(=O)c2ccc(NC(=O)Cn3cnc4ccccc4c3=O)cc2)C1 (stereo not shown) [Compound 19, N-[4-(3,5-Dimethyl-piperidine-1-sulfonyl)-phenyl]-2-(4-oxo-4H-quinazolin-3-yl)-acetamide] | 1 to 10
13 | O=C(Cn1cnc2cc(F)ccc2c1=O)Nc1ccc(S(=O)(=O)N2CCCCCC2)cc1 [Compound 139, N-[4-(Azepane-1-sulfonyl)-phenyl]-2-(7-fluoro-4-oxo-4H-quinazolin-3-yl)-acetamide] | > 25
14 | CON(C)S(=O)(=O)c1ccc(NC(=O)Cn2nnc3ccccc3c2=O)cc1 [Compound 84, N-[4-(Methoxy-methyl-sulfamoyl)-phenyl]-2-(4-oxo-4H-benzo[d][1,2,3]triazin-3-yl)-acetamide] | > 25
15 | CC(NS(=O)(=O)c1ccc(NC(=O)Cn2cnc3ccccc3c2=O)cc1)C1CC2CCC1C2 (stereo not shown) [Compound 43, N-[4-(1-Bicyclo[2.2.1]hept-2-yl-ethylsulfamoyl)-phenyl]-2-(4-oxo-4H-quinazolin-3-yl)-acetamide] | > 25
16 | Cc1ccc(-n2c(CCC(=O)NCc3ccc(S(N)(=O)=O)cc3)nc3ccccc3c2=O)cc1 [Compound 137, 3-(4-Oxo-3-p-tolyl-3,4-dihydro-quinazolin-2-yl)-N-(4-sulfamoyl-benzyl)-propionamide] | > 25
17 | CCN(CC)S(=O)(=O)c1ccc(C(=O)OCc2nc3ccccc3c(=O)n2CC(N)=O)cc1 [Compound 66, 4-Diethylsulfamoyl-benzoic acid 3-carbamoylmethyl-4-oxo-3,4-dihydro-quinazolin-2-ylmethyl ester] | > 25
18 | CN(C1CCCCC1)S(=O)(=O)c1ccc(NC(=O)Cn2cnc3ccccc3c2=O)cc1 [Compound 49, N-[4-(Cyclohexyl-methyl-sulfamoyl)-phenyl]-2-(4-oxo-4H-quinazolin-3-yl)-acetamide] | > 25
19 | CCN(CC)S(=O)(=O)c1ccc(NC(=O)Cn2cnc3ccsc3c2=O)cc1 [Compound 22, N-(4-Diethylsulfamoyl-phenyl)-2-(4-oxo-4H-thieno[3,2-d]pyrimidin-3-yl)-acetamide] | 10 to 25

Row | SMILES | EC50 [µM]
20 | CCN(CC)S(=O)(=O)c1ccc(NC(=O)Cn2cnc3scc(-c4ccccc4)c3c2=O)cc1 [Compound 59, N-(4-Diethylsulfamoyl-phenyl)-2-(4-oxo-5-phenyl-4H-thieno[2,3-d]pyrimidin-3-yl)-acetamide] | > 25
21 | CC1CCCC(C)N1S(=O)(=O)c1ccc(NC(=O)Cn2cnc3ccccc3c2=O)cc1 (stereo not shown) [Compound 18, N-[4-(2,6-Dimethyl-piperidine-1-sulfonyl)-phenyl]-2-(4-oxo-4H-quinazolin-3-yl)-acetamide] | 1 to 10
22 | CCN(CC)S(=O)(=O)c1ccc(NC(=O)Cn2cnc3cc(Cl)ccc3c2=O)cc1 [Compound 23, 2-(7-Chloro-4-oxo-4H-quinazolin-3-yl)-N-(4-diethylsulfamoyl-phenyl)-acetamide] | 10 to 25
23 | CCN(CC(=O)Nc1ccc(S(=O)(=O)N(C)C)cc1)Cc1nc2ccccc2c(=O)[nH]1 [Compound 115, N-(4-Dimethylsulfamoyl-phenyl)-2-[ethyl-(4-oxo-3,4-dihydro-quinazolin-2-ylmethyl)-amino]-acetamide] | > 25
24 | CCN(CC)S(=O)(=O)c1ccc2c(c1)CCN2C(=O)Cn1cnc2ccccc2c1=O [Compound 17, 1-[2-(4-Oxo-4H-quinazolin-3-yl)-acetyl]-2,3-dihydro-1H-indole-5-sulfonic acid diethylamide] | 1 to 10
25 | NS(=O)(=O)c1cccc(NC(=O)Cn2cnc3ccccc3c2=O)c1 [Compound 106, 2-(4-Oxo-4H-quinazolin-3-yl)-N-(3-sulfamoyl-phenyl)-acetamide] | > 25
26 | CCN(CC)S(=O)(=O)c1ccc2c(c1)CCCN2C(=O)Cn1cnc2c(C)cccc2c1=O [Compound 97, 1-[2-(8-Methyl-4-oxo-4H-quinazolin-3-yl)-acetyl]-1,2,3,4-tetrahydro-quinoline-6-sulfonic acid diethylamide] | > 25
27 | O=C(Cn1cnc2ccccc2c1=O)Nc1ccc(S(=O)(=O)N2CCCC2)cc1 [Compound 31, 2-(4-Oxo-4H-quinazolin-3-yl)-N-[4-(pyrrolidine-1-sulfonyl)-phenyl]-acetamide] | > 25
28 | NS(=O)(=O)c1ccc(NC(=O)Cn2nc(C(=O)O)c3ccccc3c2=O)cc1 [Compound 108, 4-Oxo-3-[(4-sulfamoyl-phenylcarbamoyl)-methyl]-3,4-dihydro-phthalazine-1-carboxylic acid] | > 25
29 | CCN(CC)S(=O)(=O)c1ccc(CNC(=O)Cn2cnc3ccccc3c2=O)cc1 [Compound 69, N-(4-Diethylsulfamoyl-benzyl)-2-(4-oxo-4H-quinazolin-3-yl)-acetamide] | > 25
30 | CN(Cc1ccccc1)S(=O)(=O)c1ccc(NC(=O)Cn2cnc3ccccc3c2=O)cc1 [Compound 36, N-[4-(Benzyl-methyl-sulfamoyl)-phenyl]-2-(4-oxo-4H-quinazolin-3-yl)-acetamide] | > 25
31 | O=C(Cn1cnc2ccccc2c1=O)Nc1ccc(S(=O)(=O)N2CCCCC2)cc1 [Compound 52, 2-(4-Oxo-4H-quinazolin-3-yl)-N-[4-(piperidine-1-sulfonyl)-phenyl]-acetamide] | > 25
32 | CCN(CC)S(=O)(=O)c1ccc(NC(=O)Cn2cnc3c(C)cccc3c2=O)cc1 [Compound 26, N-(4-Diethylsulfamoyl-phenyl)-2-(8-methyl-4-oxo-4H-quinazolin-3-yl)-acetamide] | 10 to 25
33 | CCN(CC(=O)Nc1ccc(S(=O)(=O)N(CC)CC)cc1)Cc1nc2ccccc2c(=O)[nH]1 [Compound 29, N-(4-Diethylsulfamoyl-phenyl)-2-[ethyl-(4-oxo-3,4-dihydro-quinazolin-2-ylmethyl)-amino]-acetamide] | 10 to 25
34 | O=C(Cn1cnc2ccccc2c1=O)Nc1ccc(S(=O)(=O)Nc2ncccn2)cc1 [Compound 39, 2-(4-Oxo-4H-quinazolin-3-yl)-N-[4-(pyrimidin-2-ylsulfamoyl)-phenyl]-acetamide] | > 25
35 | O=C(Cn1cnc2ccccc2c1=O)Nc1ccc(S(=O)(=O)N2CCCCCC2)cc1 [Compound 51, N-[4-(Azepane-1-sulfonyl)-phenyl]-2-(4-oxo-4H-quinazolin-3-yl)-acetamide] | > 25
36 | O=C(Cn1cnc2ccccc2c1=O)Nc1ccc(S(=O)(=O)NCc2ccco2)cc1 [Compound 41, N-{4-[(Furan-2-ylmethyl)-sulfamoyl]-phenyl}-2-(4-oxo-4H-quinazolin-3-yl)-acetamide] | > 25
37 | CCN(CC)S(=O)(=O)c1ccc(NC(=O)Cn2cnc3sc(-c4ccccc4)cc3c2=O)cc1 [Compound 56, N-(4-Diethylsulfamoyl-phenyl)-2-(4-oxo-6-phenyl-4H-thieno[2,3-d]pyrimidin-3-yl)-acetamide] | > 25
38 | COc1ccc(NC(=O)Cn2cnc3ccccc3c2=O)cc1S(N)(=O)=O [Compound 136, N-(4-Methoxy-3-sulfamoyl-phenyl)-2-(4-oxo-4H-quinazolin-3-yl)-acetamide] | > 25

Same assay, conditions: Dengue virus; viral yield assay, Vero cells; read-out: EC50 Yield Den-2

Row | SMILES | EC50 [µM]
39 | CCN(CC)S(=O)(=O)c1ccc2c(c1)CCN2C(=O)Cn1cnc2ccccc2c1=O [Compound 17, 1-[2-(4-Oxo-4H-quinazolin-3-yl)-acetyl]-2,3-dihydro-1H-indole-5-sulfonic acid diethylamide] | 5.1

Same assay, conditions: Dengue virus; viral yield assay, Vero cells; read-out: EC90 Yield Den-2

Row | SMILES | EC90 [µM]
40 | CCN(CC)S(=O)(=O)c1ccc2c(c1)CCN2C(=O)Cn1cnc2ccccc2c1=O [Compound 17, 1-[2-(4-Oxo-4H-quinazolin-3-yl)-acetyl]-2,3-dihydro-1H-indole-5-sulfonic acid diethylamide] | 12.1
